The text below walks through data of patent US10000454B2, “Antidiabetic tricyclic compounds” (Merck Sharp & Dohme Corp., priority 2014, dated 2018).

The target in assay [1] is T1, Human GPR40 (Homo sapiens, UniProt O14842). As to the kind of experiment: Inositol Phosphate Turnover (IP1) Assay. Also noted: expressed in transfected cells; host or cells: HEK cells (stably expressing the aequorin reporter). Particulars: HEK cells stably expressing human GPR40, CisBio IP-One kit. It is filed as cell-based. The procedure:
(§1) Human and mouse GPR40 stable cell-lines were generated in CHO cells stably expressing NFAT BLA (Beta-lactamase). A human GPR40 stable cell-line was generated in HER cells stably expressing the aequorin expressing reporter. The expression plasmids were transfected using lipofectamine (Life Technologies) following manufacturer's instructions. Stable cell-lines were generated following drug selection.
The assay is performed in 384-well format. HEK cells stably expressing human GPR40 are plated at 15,000 cells per well in growth medium (DMEM/10% fetal calf serum). Cell plates are then incubated 16 hours at 37 degrees in a 5% CO2 incubator.
Measurement of Inositol Phosphate Turnover (IP1) is performed using the CisBio IP-One kit (Part number 62IPAPEB). After the 16 hour incubation, the cells are washed with HEPES buffer and 10 ul of stimulation buffer (prepared as described in the kit) is added to each well. In a separate plate, compounds are diluted in DMSO (400-fold over the final concentration in the assay well) and 25 nl is acoustically transferred to the appropriate well in the assay cell plate. The plates are then incubated for 60 minutes at 37 degrees. 10 ul of detection buffer (also prepared as described in the IP-One kit) is added to each well and the plates are incubated for 60 minutes in the dark. The plates are then read in a Perkin Elmer EnVision or equivalent reader able to measure FRET. Fluorescent ratio of emission at 665 and 620 nm is then converted to IP1 concentration by back calculating from an IP1 standard curve prepared at the time of the assay.

For assay [2], the target named is T1, Human GPR40. Nature of the assay: FLIPR assay, agonist-induced calcium mobilization. The class given is cell-based. The settings on record: GPR40/CHO NFAT BLA cells. Set-up: expressed in transfected cells. The procedure: as §1
FLIPR (Fluorimetric Imaging Plate Reader, Molecular Devices) assays were performed to measure agonist-induced calcium mobilization of the stable clones. For the FLIPR assay, one day before assay, GPR40/CHO NFAT BLA cells were seeded into black-wall-clear-bottom 384-well plates (Costar) at 1.4×10e4 cells/20 μL medium/well. The cells were incubated with 20 μl/well of the assay buffer (HMS, 0.1% BSA, 20 mM HEPES, 2.5 mM probenecid, pH 7.4) containing 8 μM fluo-4, AM, 0.08% pluronic acid at room temperature for 100 minutes. Fluorescence output was measured using FLIPR. Compounds were dissolved in DMSO and diluted to desired concentrations with assay buffer. 13.3 μL/well of compound solution was added.

T1 sequence (O14842 whole entry): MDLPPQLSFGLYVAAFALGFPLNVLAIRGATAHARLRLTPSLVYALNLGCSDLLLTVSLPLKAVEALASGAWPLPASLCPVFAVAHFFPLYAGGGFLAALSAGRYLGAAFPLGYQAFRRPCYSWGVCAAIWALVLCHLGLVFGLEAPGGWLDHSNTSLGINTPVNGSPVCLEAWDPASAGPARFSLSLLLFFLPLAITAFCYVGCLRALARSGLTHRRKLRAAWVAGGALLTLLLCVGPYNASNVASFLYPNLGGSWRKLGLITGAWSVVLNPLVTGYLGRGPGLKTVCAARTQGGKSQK

As for `CC1(C)CC(c2ccccc2F)c2cc(COc3cc4c(cn3)[C@H]3[C@@H](C4)[C@@H]3C(=O)O)ccc21` (stereo partly drawn) [Example 17, (5aR,6S,6aS)-3-((1,1-dimethyl-3-(2-fluorophenyl)-2,3-dihydro-1H-inden-5-yl)methoxy)-5,5a,6,6a-tetrahydrocyclopropa[4,5] cyclopenta[1,2-c]pyridine-6-carboxylic acid], the results for the EC50 in assay [1] and in assay [2] were 43.7 nM and 21.7 nM, respectively.

As to `O=C(O)[C@H]1[C@@H]2Cc3cc(OCc4ccc5c(c4)C(c4ccccc4C(F)(F)F)CC5c4ccccc4)ncc3[C@@H]21` (stereo partly drawn) [Example 18, (5aR,6S,6aS)-3-((1-phenyl-3-(2-(trifluoromethyl)phenyl)-2,3-dihydro-1H-inden-5-yl)methoxy)-5,5a,6,6a-tetrahydrocyclopropa[4,5]cyclopenta[1,2-c]pyridine-6-carboxylic acid], the EC50 in assay [1] worked out at 24.6 nM; in assay [2], 13.2 nM.

Take `O=C(O)[C@H]1[C@@H]2Cc3cc(OCc4ccc5c(c4)C(c4ccccc4C(F)(F)F)CC5c4ccccc4)ncc3[C@@H]21` (stereo partly drawn) [Example 19, (5aR,6S,6aS)-3-((1-phenyl-3-(2-(trifluoromethyl)phenyl)-2,3-dihydro-1H-inden-5-yl)methoxy)-5,5a,6,6a-tetrahydrocyclopropa[4,5]cyclopenta[1,2-c]pyridine-6-carboxylic acid]: the EC50 in assay [1] stood at 17.5 nM; in assay [2], 15.5 nM.

In the case of `O=C(O)[C@H]1[C@@H]2Cc3cc(OCc4ccc5c(c4)C(O)(c4ccccc4C(F)(F)F)CC5)ccc3[C@@H]21` (stereo partly drawn) [Example 21, (1S,1aS,6aR)-4-((3-hydroxy-3-(2-(trifluoromethyl)phenyl)-2,3-dihydro-1H-inden-5-yl)methoxy)-1,1a,6,6a-tetrahydrocyclopropa[a]indene-1-carboxylic acid], the figures for the concentration for a half-maximal effect (EC50) in assay [1] and in assay [2] were 16.6 nM and 17.7 nM, respectively.

With `CC1(C)CC(c2ccncc2C(F)(F)F)c2cc(COc3cc4c(cn3)[C@H]3[C@@H](C4)[C@@H]3C(=O)O)c(F)cc21` (some centres unmarked) [Example 25], the figures for the EC50 in assay [1] and in assay [2] were 6.91 nM and 6.92 nM, respectively.

With `CC1(C)CC(c2cccnc2C(F)(F)F)c2cc(COc3cc4c(cn3)[C@H]3[C@@H](C4)[C@@H]3C(=O)O)c(F)cc21` (stereo partly drawn) [Example 26, (5aR,6S,6aS)-3-((6-fluoro-1,1-dimethyl-3-(2-(trifluoromethyl)pyridin-3-yl)-2,3-dihydro-1H-inden-5-yl)methoxy)-5,5a,6,6a-tetrahydrocyclopropa [4,5]cyclopenta[1,2-c]pyridine-6-carboxylic acid], the concentration giving a half-maximal response (EC50) in assay [1] came to 20.8 nM; in assay [2], 14.1 nM.

Turning to `COc1ncccc1C1CCC(C)(C)c2cc(F)c(COc3cc4c(cn3)[C@H]3[C@@H](C4)[C@@H]3C(=O)O)cc21` (stereo partly drawn) [Example 27, (5aR,6S,6aS)-3-((3-fluoro-8-(2-methoxypyridin-3-yl)-5,5-dimethyl-5,6,7,8-tetrahydronaphthalen-2-yl)methoxy)-5,5a,6,6a-tetrahydrocyclopropa [4,5]cyclopenta[1,2-c]pyridine-6-carboxylic acid], the EC50 in assay [1] amounted to 15.6 nM; in assay [2], 7.22 nM.

As for `CC1(C)CC(c2ccc(OCCCS(C)(=O)=O)cc2C(F)(F)F)c2cc(COc3cc4c(cn3)[C@H]3[C@@H](C4)[C@@H]3C(=O)O)c(F)cc21` (stereo partly drawn) [Example 28, (6S)-3-((6-fluoro-1,1-dimethyl-3-(4-(3-(methylsulfonyl)propoxy)-2-(trifluoromethyl)phenyl)-2,3-dihydro-1H-inden-5-yl)methoxy)-5,5a,6,6a-tetrahydrocyclopropa[4,5]cyclopenta[1,2-c]pyridine-6-carboxylic acid], the concentration for a half-maximal effect (EC50) in assay [1] came out at 41.2 nM; in assay [2], 6.9 nM.

On to `Cc1nc(OCCC(C)(C)O)ccc1C1CCCc2ccc(COc3cc4c(cn3)[C@H]3[C@@H](C4)[C@@H]3C(=O)O)cc21` (stereo partly drawn) [Example 30, (5aR,6S,6aS)-3-((8-(6-(3-hydroxy-3-methylbutoxy)-2-methylpyridin-3-yl)-5,6,7,8-tetrahydronaphthalen-2-yl)methoxy)-5,5a,6,6a-tetrahydrocyclopropa[4,5] cyclopenta[1,2-c]pyridine-6-carboxylic acid], for which the EC50 turned out to be 35 nM in assay [1] and 33 nM in assay [2].

Turning to `C=C(C)CCOc1ccc(C2CCCc3ccc(COc4cc5c(cn4)[C@H]4[C@@H](C5)[C@@H]4C(=O)O)cc32)c(C)n1` (stereo partly drawn) [Example 31, (5aR,6S,6aS)-3-((8-(2-methyl-6-((3-methylbut-3-en-1-yl)oxy)pyridin-3-yl)-5,6,7,8-tetrahydronaphthalen-2-yl)methoxy)-5,5a,6,6a-tetrahydrocyclopropa[4,5] cyclopenta[1,2-c]pyridine-6-carboxylic acid], the EC50 was 214 nM in assay [1] and 51.9 nM in assay [2].

For `CC1(C)CN(c2ccccc2C(F)(F)F)c2cc(COc3cc4c(cn3)[C@H]3[C@@H](C4)[C@@H]3C(=O)O)c(F)cc21` [Example 32, (5aR,6S,6aS)-3-((5-fluoro-3,3-dimethyl-1-(2-(trifluoromethyl)phenyl)indolin-6-yl)methoxy)-5,5a,6,6a-tetrahydrocyclopropa[4,5]cyclopenta[1,2-c]pyridine-6-carboxylic acid], the EC50 came to 9.96 nM in assay [1] and 8.94 nM in assay [2].

`O=C(O)[C@H]1[C@@H]2Cc3cc(OCc4ccc5c(c4)N(c4ccccc4C(F)(F)F)CC5)ncc3[C@@H]21` [Example 33]: the EC50 was 26.2 nM in assay [1] and 15.3 nM in assay [2].

For `O=C(O)[C@H]1[C@@H]2Cc3cc(OCc4ccc5ccn(-c6ccccc6C(F)(F)F)c5c4)ncc3[C@@H]21` [Example 34, (5aR,6S,6aS)-3-((1-(2-(trifluoromethyl)phenyl)-1H-indol-6-yl)methoxy)-5,5a,6,6a-tetrahydrocyclo-propa[4,5]cyclopenta[1,2-c]pyridine-6-carboxylic acid], the EC50 in assay [1] came out at 23.2 nM; in assay [2] it was 33.9 nM.

For the compound `O=C(O)[C@H]1[C@@H]2Cc3cc(OCc4ccc5c(c4)N(c4ccccc4)CC5)ncc3[C@@H]21` [Example 35, (5aR,6S,6aS)-3-((1-(2-phenyl)indolin-6-yl)methoxy)-5,5a,6,6a-tetrahydrocyclopropa[4,5] cyclopenta[1,2-c]pyridine-6-carboxylicacid], the concentration giving a half-maximal response (EC50) came out at 168 nM in assay [1] and 53.4 nM in assay [2].

Turning to `O=C(O)[C@H]1[C@@H]2Cc3cc(OCc4ccc5c(Br)cn(-c6ccccc6C(F)(F)F)c5c4)ncc3[C@@H]21` [Example 36, (5aR,6S,6aS)-3-({3-bromo-1-[2-(trifluoromethyl)phenyl]-1H-indol-6-yl}methoxy)-5,5a,6,6a-tetrahydrocyclopropa[4,5] cyclopenta[1,2-c]pyridine-6-carboxylic acid], the EC50 in assay [1] was found to be 47.6 nM; in assay [2], 26.9 nM.

With `O=C(O)[C@H]1[C@@H]2Cc3cc(OCc4ccc5c(C6CC6)cn(-c6ccccc6C(F)(F)F)c5c4)ncc3[C@@H]21` [Example 37, (5aR,6S,6aS)-3-({3-cyclopropyl-1-[2-(trifluoromethyl)phenyl]-1H-indol-6-yl}methoxy)-5,5a,6,6a-tetrahydrocyclopropa[4,5] cyclopenta[1,2-c]pyridine-6-carboxylic acid], the figures for the EC50 in assay [1] and in assay [2] were 91.5 nM and 42.5 nM, respectively.

`CN1C(c2ccccc2C(F)(F)F)c2cc(COc3cc4c(cn3)[C@H]3[C@@H](C4)[C@@H]3C(=O)O)ccc2C1(C)C` (stereo partly drawn) [Example 38, (5aR,6S,6aS)-3-((1,1,2-trimethyl-3-(2-(trifluoromethyl)phenyl)isoindolin-5-yl)methoxy)-5,5a,6,6a-tetrahydrocyclopropa[4,5]cyclopenta[1,2-c]pyridine-6-carboxylic acid]: the EC50 came out at 11.9 nM in assay [1] and 5.35 nM in assay [2].

On to `CC1(C)NC(c2ccccc2C(F)(F)F)c2cc(COc3cc4c(cn3)[C@H]3[C@@H](C4)[C@@H]3C(=O)O)ccc21` (stereo partly drawn) [Example 39, (5aR,6S,6aS)-3-((1,1-dimethyl-3-(2-(trifluoromethyl)phenyl)isoindolin-5-yl)methoxy)-5,5a,6,6a-tetrahydrocyclopropa[4,5]cyclopenta[1,2-c]pyridine-6-carboxylic acid], for which the EC50 in assay [1] was 15.4 nM; in assay [2] it was 13.9 nM.

For `CC1(c2ccccc2C(F)(F)F)OCc2ccc(COc3cc4c(cn3)[C@H]3[C@@H](C4)[C@@H]3C(=O)O)cc21` (some centres unmarked) [Example 40], the EC50 is 431 nM in assay [1] and 16.7 nM in assay [2].

Usually EC50 stands for the concentration giving half of the maximal effect.
